Assay results reported in patent US9975880B2, “Imidazolidine-2,4-dione dervatives” (IPSEN PHARMA S.A.S., priority 2013, dated 2018).
Read-outs that look alike come from different tables or passages of the source.

Key:
LNCaP cells = assay: Anti-proliferative activity on LNCaP in complete medium; type: cell-based; settings: Homo sapiens, 144 h
Method: The anti-proliferative activity of the compounds of the present invention is determined on LNCaP in complete medium by applying the following experimental procedure:
The LNCaP cell type (ATCC, 1740) originates from a prostate carcinoma. This line expresses the androgen receptor and is hormone-dependent.
Maintenance of the LNCaP line is carried out in complete culture medium: RPMI, 10% of fetal calf serum, 2 mM glutamine, 100 U/ml penicillin, 0.1 mg/ml of streptomycin and 0.01M HEPES, 1 mM sodium pyruvate, […]. • Seeding the plates:
The LNCaP line is seeded at 20,000 cells/well in 90 μl of complete medium in 96-well plates coated with poly-D-lysine (Biocoat, Costar). • Treatment of the cells: 24 h after the seeding, the cells are treated with 10 μl/well of compound diluted in the culture medium. The concentrations used are the following: 1 nM/10/30/100/300/1000/3000/10,000 nM. The cells are incubated for 144 h at 37° C., 5% CO2. • Reading: After incubation for 6 days, cell proliferation was determined by Cell-Titer-Glow (CTG) Luminescent Cell Viability Assay. • Results: The experiments are carried out in duplicate and the best compounds are tested twice. […] Anti-Proliferative Activity on DU145 in Complete Medium

DU145 cells = assay: Anti-proliferative activity on DU145 in complete medium; type: cell-based; settings: DU145 (no androgen receptor), 144 h, up to 10,000 nM, Cell-Titer-Glow
Method: It is used to evaluate the selectivity of the compounds for androgen receptor expressing cells. No activity of the compounds is expected. • The cells of the DU145 line (ATCC HTB-81) are seeded at 800 cells/well in 90 μl of complete medium in 96-well plates coated with poly-D-lysine (Biocoat, Costar). • Treatment of the cells: 24 h after the seeding, the cells are treated with 10 μl/well of compound diluted in the culture medium. The concentrations used are the following: 1 nM/10/30/100/300/1000/3000/10,000 nM. The cells are incubated for 144 h at 37° C., 5% CO2. • Reading: After incubation for 6 days, cell proliferation was determined by Cell-Titer-Glow (CTG) Luminescent Cell Viability Assay • Results: The experiments are carried out in duplicate and the best compounds are tested twice. A concentration value inhibiting the cell proliferation by 50% (IC50) is calculated.

[1] = complete medium, 144 h incubation, Cell-Titer-Glow, read-out: IC50 on the LNCaP cells in culture (inhibition of cell proliferation by 50%)

Row | Compound | IC50 (LNCaP cells; [1]) [µM] | IC50 on DU145 cells (anti-proliferative effect) (DU145 cells) | IC50 (LNCaP cells; read-out: IC50 on the LNCaP cells in culture (inhibition of cell proliferation by 50%), LNCaP, complete medium, 144 h incubation, Cell-Titer-Glow) [µM]
1 | CC1(C)CN(c2ccc(S(C)(=O)=O)c(C(F)(F)F)c2)C(=O)N1C/C=C\CN1C(=O)N(c2ccc(C#N)c(C(F)(F)F)c2)C(=O)C1(C)C [Example 7, (Z)-4-(3-(4-(5,5-dimethyl-3-(4-(methylsulfonyl)-3-(trifluoromethyl)phenyl)-2-oxoimidazolidin-1-yl)but-2-en-1-yl)-4,4-dimethyl-2,5-dioxoimidazolidin-1-yl)-2-(trifluoromethyl)benzonitrile] | < 1.5 | no measurable IC50 | 
2 | CC1(C)C(=O)N(c2ccc(C#N)c(C(F)(F)F)c2)C(=O)N1C/C=C\Cn1cc(-c2ccc(C#N)c(C(F)(F)F)c2)cn1 [Example 1, (Z)-4-(3-(4-(4-(4-cyano-3-(trifluoromethyl)phenyl)-1H-pyrazol-1-yl)but-2-en-1-yl)-4,4-dimethyl-2,5-dioxoimidazolidin-1-yl)-2-(trifluoromethyl)benzonitrile] |  | no measurable IC50 | 
3 | CC1(C)CN(c2ccc(S(C)(=O)=O)c(C(F)(F)F)c2)C(=O)N1C/C=C\CN1C(=O)N(c2ccc(S(C)(=O)=O)c(Cl)c2)C(=O)C1(C)C [Example 8, (Z)-3-(3-chloro-4-(methylsulfonyl)phenyl)-1-(4-(5,5-dimethyl-3-(4-(methylsulfonyl)-3-(trifluoromethyl)phenyl)-2-oxoimidazolidin-1-yl)but-2-en-1-yl)-5,5-dimethylimidazolidine-2,4-dione] |  | no measurable IC50 | 
4 | CC1(C)C(=O)N(c2ccc(C#N)c(C(F)(F)F)c2)C(=O)N1C/C=C\Cn1cnc(-c2ccc(S(C)(=O)=O)c(C(F)(F)F)c2)c1 [Example 18, (Z)-4-(4,4-dimethyl-3-(4-(4-(4-(methylsulfonyl)-3-(trifluoromethyl)phenyl)-1H-imidazol-1-yl)but-2-en-1-yl)-2,5-dioxoimidazolidin-1-yl)-2-(trifluoromethyl)benzonitrile] | < 1.5 |  | 
5 | CC1(C)CN(c2ccc(C#N)c(C(F)(F)F)c2)C(=O)N1C/C=C\CN1C(=O)N(c2ccc(S(C)(=O)=O)c(C(F)(F)F)c2)C(=O)C1(C)C [Example 9, (Z)-4-(3-(4-(5,5-dimethyl-3-(4-(methylsulfonyl)-3-(trifluoromethyl)phenyl)-2,4-dioxoimidazolidin-1-yl)but-2-en-1-yl)-4,4-dimethyl-2-oxoimidazolidin-1-yl)-2-(trifluoromethyl)benzonitrile] |  | no measurable IC50 | < 1.5
6 | CC1(C)C(=O)N(c2ccc(S(C)(=O)=O)c(C(F)(F)F)c2)C(=O)N1C/C=C\Cn1cc(-c2ccc(C#N)c(C(F)(F)F)c2)cn1 [Example 2, (Z)-4-(1-(4-(5,5-dimethyl-3-(4-(methylsulfonyl)-3-(trifluoromethyl)phenyl)-2,4-dioxoimidazolidin-1-yl)but-2-en-1-yl)-1H-pyrazol-4-yl)-2-(trifluoromethyl)benzonitrile] |  | no measurable IC50 | 
7 | CC1(C)C(=O)N(c2ccc(C#N)c(C(F)(F)F)c2)C(=O)N1C/C=C\Cn1cc(-c2ccc(C#N)c(C(F)(F)F)c2)nn1 [Example 22, (Z)-4-(3-(4-(4-(4-cyano-3-(trifluoromethyl)phenyl)-1H-1,2,3-triazol-1-yl)but-2-en-1-yl)-4,4-dimethyl-2,5-dioxoimidazolidin-1-yl)-2-(trifluoromethyl)benzonitrile] | < 1.5 |  | 
8 | CC1(C)C(=O)N(c2ccc(C#N)c(C(F)(F)F)c2)C(=O)N1C/C=C\Cn1cc(-c2ccccc2)nn1 [Example 19, (Z)-4-(4,4-dimethyl-2,5-dioxo-3-(4-(4-phenyl-1H-1,2,3-triazol-1-yl)but-2-en-1-yl)imidazolidin-1-yl)-2-(trifluoromethyl)benzonitrile] | < 1.5 |  | 
